From patent US20090156669A1, “COMBINATION OF ACTIVE INGREDIENTS WITH INSECTICIDAL AND ACARICIDAL PROPERTIES” (Bayer CropScience AG, priority 2006, published 2009)

Test system: Tetranychus urticae
Test: Tetranychus urticae test (OP-resistant, dip application)
Type: in vivo
Conditions: dip application of infested bush beans (Phaseolus vulgaris), OP-resistant spider mites
Experimental: Tetranychus urticae—Test (OP-Resistent, Dip Application)
To produce a suitable preparation of active compound, 1 part by weight of active compound is mixed with the stated amounts of solvent and emulsifier, and the concentrate is diluted with water to the desired concentrations.
Busch beans (Phaseolus vulgaris), which are heavily infected by the greenhouse red spider mite (Tetranychus urticae) are dipped into an active compound preparation of the desired concentration.
After the desired period of time, the kill in % is determined. 100% means that all spider mites have been killed; 0% means that none of the spider mites have been killed.

| Compound | Kill in % after 6 d (100 ppm) [%] | Kill in % after 6 d (0.16 ppm) [%] |
| --- | --- | --- |
| CC1(C)[C@H](/C=C(\Cl)C(F)(F)F)[C@@H]1C(=O)O[C@H](C#N)c1cccc(Oc2ccccc2)c1 [gamma-cyhalothrin] | 65 |  |
| Cc1cc(C)c(C2=C(OC(=O)CC(C)(C)C)C3(CCCC3)OC2=O)c(C)c1 [spiromesifen] |  | 0 |
